Test results reported in patent US5952376A, “Trienyl compounds” (The Trustees of the University of Pennsylvania, priority 1997, dated 1999).

What was measured:
[1] = tested on: DU-145; assay: Antitumor Activity (in vitro), Prostate DU-145; assay type: cell-based; conditions: Homo sapiens
Protocol: (§1) Trienes (+)-3a and (+)-3b were tested for antitumor activity generally in accordance with the procedure described by Bai, et al., Biochemistry 1995, 34, 9714.

[2] = tested on: NCI-H460; assay: Antitumor Activity (in vitro), Lung-NSC NCI-H460; assay type: cell-based; conditions: Homo sapiens
Protocol: as §1

[3] = tested on: SK-N-SH; assay: Antitumor Activity (in vitro), Neuroblast SK-N-SH; assay type: cell-based; conditions: Homo sapiens
Protocol: as §1

[4] = tested on: FADU; assay: Antitumor Activity (in vitro), Pharynx-sq FADU; assay type: cell-based; conditions: Homo sapiens
Protocol: as §1

[5] = tested on: SW 1736; assay: Antitumor Activity (in vitro), Thyroid ca SW 1736; assay type: cell-based; conditions: Homo sapiens
Protocol: as §1

[6] = tested on: human cancer cell lines; assay: antitumor activity against a series of human cancer cell lines; assay type: cell-based
Protocol: as §1

[7] = tested on: BXPC-3; assay: Antitumor Activity (in vitro), Pancreas-a BXPC-3; assay type: cell-based; conditions: Homo sapiens
Protocol: as §1

[8] = tested on: chemoresistant tumor types, including human melanoma and lung, colon, and brain cancers; conditions: cited from earlier work
[9] = tested on: tubulin; conditions: cited from earlier work
[10] = tested on: mitosis; conditions: cited from earlier work
[11] = tested on: microtubule assembly; conditions: cited from earlier work

| Molecule | GI50 [1] [µM] | GI50 [2] [µM] | GI50 [3] [µM] | GI50 [4] [µM] | GI50 [5] [µM] | antitumor activity [6] | GI50 [7] [µM] | activity against chemoresistant tumor types [8] | binding to tubulin [9] | inhibition of mitosis [10] | blocking microtubule assembly [11] |
| --- | --- | --- | --- | --- | --- | --- | --- | --- | --- | --- | --- |
| C=C(Cl)/C=C/C(O)CC(=C)C[C@H]1OC(OC)[C@H](OCc2ccccc2)[C@@H](OCc2ccccc2)[C@@H]1OCc1ccccc1 (single isomer, unassigned) [Triene 3b] | > 16 | 11 | 3.6 | 8.3 | 9.6 | active | 5.3 |  |  |  |  |
| Spongistatin 1 |  |  |  |  |  |  |  | active | binding to tubulin | inhibits mitosis | blocking microtubule assembly |
| C=C/C=C/C(O)CC(=C)C[C@H]1OC(OC)[C@H](OCc2ccccc2)[C@@H](OCc2ccccc2)[C@@H]1OCc1ccccc1 (single isomer, unassigned) [Triene 3a] | 0.56 | 0.46 | 0.54 | 0.47 | 1.2 | active | 0.44 |  |  |  |  |
